Results on 17 compounds are retold here after patent publication US10449258B2, “Antibody drug conjugate, intermediate, preparation method, pharmaceutical composition and uses thereof” (XDCEXPLORER (SHANGHAI) CO., LTD., priority 2015, dated 2019).

Series [1] concerns Her2-positive human BT474 breast tumor cells. Nature of the series: Cytotoxicity assay (growth inhibition, CellTiter-Glo) on BT474. As to the method: (§1) Her2-positive human BT474 breast tumor cells (BT474 for short), Her2 low expression human MCF-7 breast tumor cells (MCF-7 for short), and human breast tumor cell strain MCF7-Her2 with stable-transfected Her2 outside MCF-7 (MCF-7-Her2 for short) were used (they were prepared by the methods disclosed in the literatures for preparing recombinant cells: Teemu T. Junttila, et al., Breast. Cancer Res. Treat., 2011, 128, 347 and Jeffrey J. Wallin et al., Clin. Cancer Res., 2012, 18, 3901, the contents of which are incorporated herein by reference in their entireties). The growth inhibition of tumor cells by T-CE-040 and T-CE-063 antibody drug conjugates were evaluated. BT474, MCF7-Her2 and MCF-7 were digested with 0.25% (v/v) trypsin and the cells were stripped and then suspended in 100 μL complete medium. 2,000 cells were inoculated in a 96-well plate and cultured, grew adherently overnight at 37° C., then 100 μL T-CE-040 and T-CE-063 antibody drug conjugates with different concentration gradients and the complete medium were added. After 120 hours, relative cell proliferation analysis was performed by adding 50 μL CellTiter-Glo® […] Cell Activation Reagent (CellTiter-GloB Luminescent, Promega).
On the technique in general: ATP-based viability assays read luminescence as a measure of living cells.

Series [2] concerns Her2 low expression human MCF-7 breast tumor cells. Nature of the series: Cytotoxicity assay (growth inhibition, CellTiter-Glo) on MCF-7. As for the experimental part:
as §1

Series [3] deals with human breast tumor cell strain MCF7-Her2 with stable-transfected Her2. The series is described as follows: Cytotoxicity assay (growth inhibition, CellTiter-Glo) on MCF7-Her2. As for the experimental part:
as §1

The mark [4] stands for this setting: Homo sapiens, BT-474, 120 h, read-out: Cytotoxicity assay IC50 BT474, BT474 cells, 120 hours, CellTiter-Glo.
[5] abbreviates: Homo sapiens, MCF7, 120 h, read-out: Cytotoxicity assay IC50 MCF7, MCF-7 cells, 120 hours, CellTiter-Glo.
Where [6] appears, read: Homo sapiens, 120 h, read-out: Cytotoxicity assay IC50 MCF-Her2, MCF7-Her2 cells, 120 hours, CellTiter-Glo.
The mark [7] stands for this setting: read-out: Cytotoxicity assay IC50 BT474, BT474 cells, 120 hours, CellTiter-Glo.
The mark [8] stands for this setting: read-out: Cytotoxicity assay IC50 MCF7, MCF-7 cells, 120 hours, CellTiter-Glo.
[9] abbreviates: read-out: Cytotoxicity assay IC50 MCF-Her2, MCF7-Her2 cells, 120 hours, CellTiter-Glo.

As usually defined, the pIC50 is the negative decadic logarithm of the IC50, by convention in mol/L.

pIC50: −log10 of the molar value. Like-named read-outs stand apart in the source and are kept apart here.

Regarding `COc1cc2cc(c1Cl)N(C)C(=O)CC(OC(=O)[C@H](C)N(C)C(CCSSCCCC(=O)ON1C(=O)CCC1=O)C(F)(F)F)[C@]1(C)O[C@H]1[C@H](C)[C@@H]1C[C@@](O)(NC(=O)O1)[C@H](OC)/C=C/C=C(\C)C2` (stereo partly drawn) [CE-041], the negative-log IC50 (pIC50) in series [1] (setting [4]) was 7.17; in series [2] (setting [5]), 6.73; in series [3] (setting [6]) it was 6.90.
As for `COCC(C)(CCC(=O)N(C)[C@@H](C)C(=O)O[C@H]1CC(=O)N(C)c2cc(cc(OC)c2Cl)C/C(C)=C/C=C/[C@@H](OC)[C@@]2(O)C[C@H](OC(=O)N2)[C@@H](C)[C@@H]2O[C@@]12C)SSC` (stereo partly drawn) [CE-015], the pIC50 is 8.20 in series [1] (setting [7]), 8.52 in series [2] (setting [8]) and 8.15 in series [3] (setting [9]).
As for `COc1cc2cc(c1Cl)N(C)C(=O)CC(OC(=O)[C@H](C)N(C)C(=O)CCC(SSC)C(C)C)[C@]1(C)O[C@H]1[C@H](C)[C@@H]1C[C@@](O)(NC(=O)O1)[C@H](OC)/C=C/C=C(\C)C2` (stereo partly drawn) [CE-022], the results for the negative-log IC50 (pIC50) in series [1] (setting [4]), in series [2] (setting [5]) and in series [3] (setting [6]) were 7.89, 8.00 and 8.22, respectively.
Turning to `COc1cc2cc(c1Cl)N(C)C(=O)C[C@H](OC(=O)[C@H](C)OCCSC1CC(=O)N(C[C@H]3CC[C@H](C(=O)ON4C(=O)CCC4=O)CC3)C1=O)[C@]1(C)O[C@H]1[C@H](C)C1C[C@@](O)(NC(=O)O1)[C@H](OC)/C=C/C=C(\C)C2` (stereo partly drawn) [CE-037], the results for the negative-log IC50 (pIC50) in series [1] (setting [4]), in series [2] (setting [5]) and in series [3] (setting [6]) were 7.31, 6.87 and 7.15, respectively.
The corresponding values for `COc1cc2cc(c1Cl)N(C)C(=O)C[C@H](OC(=O)[C@H](C)N(C)[C@@H](CCSSC)C(F)(F)F)[C@]1(C)O[C@H]1[C@H](C)[C@@H]1C[C@@](O)(NC(=O)O1)[C@H](OC)/C=C/C=C(\C)C2` (single isomer, unassigned) [CE-029] are 9.07, 8.70 and 8.77.
Consider `COCC(C)(CCC(=O)N(C)[C@H](C)C(=O)OC1CC(=O)N(C)c2cc(cc(OC)c2Cl)C/C(C)=C/C=C/[C@@H](OC)[C@@]2(O)C[C@H](OC(=O)N2)[C@@H](C)[C@@H]2O[C@@]12C)SSC` (stereo partly drawn) [CE-014], for which the pIC50 in series [1] (setting [4]) was 7.71; in series [2] (setting [5]), 6.90; in series [3] (setting [6]) it was 7.16.
Turning to `COc1cc2cc(c1Cl)N(C)C(=O)C[C@H](OC(=O)C(COCCCSSC)OC)[C@]1(C)O[C@H]1[C@H](C)C1C[C@@](O)(NC(=O)O1)[C@H](OC)/C=C/C=C(\C)C2` (single isomer, unassigned) [CE-055-1], the pIC50 was 8.10 in series [1] (setting [7]), 8.22 in series [2] (setting [8]) and 8.52 in series [3] (setting [9]).
Turning to `COc1cc2cc(c1Cl)N(C)C(=O)C[C@H](OC(=O)[C@@H](C)N(C)C(=O)CCSSC)C1(C)O[C@H]1[C@H](C)C1C[C@@](O)(NC(=O)O1)[C@H](OC)/C=C/C=C(\C)C2` (stereo partly drawn) [DM1-SMe, reference compound], the negative logarithm of the IC50 (pIC50) in series [1] (Homo sapiens, BT-474, 120 h, read-out: Cytotoxicity assay IC50 BT474) was 8.03; in series [2] (Homo sapiens, MCF7, 120 h, read-out: Cytotoxicity assay IC50 MCF7), 8.02; in series [3] (Homo sapiens, 120 h, read-out: Cytotoxicity assay IC50 MCF-Her2), 8.14.
Take `COc1cc2cc(c1Cl)N(C)C(=O)C[C@H](OC(=O)COCCCSC1CC(=O)N(C[C@H]3CC[C@H](C(=O)ON4C(=O)CCC4=O)CC3)C1=O)[C@]1(C)O[C@H]1[C@H](C)C1C[C@@](O)(NC(=O)O1)[C@H](OC)/C=C/C=C(\C)C2` (stereo partly drawn) [CE-048]: the negative-log IC50 (pIC50) in series [1] (setting [4]) is 6.58; in series [2] (setting [5]), 6.77; in series [3] (setting [6]), 7.14.
On to `COc1cc2cc(c1Cl)N(C)C(=O)C[C@H](OC(=O)[C@H](C)OCCOCCSSC)[C@]1(C)O[C@H]1[C@H](C)[C@@H]1C[C@@](O)(NC(=O)O1)[C@H](OC)/C=C/C=C(\C)C2` [CE-028], for which the negative-log IC50 (pIC50) in series [1] (setting [4]) was 7.92; in series [2] (setting [5]), 7.39; in series [3] (setting [6]), 7.48.
The corresponding values for `COc1cc2cc(c1Cl)N(C)C(=O)C[C@H](OC(=O)[C@H](C)OCCCSSC)[C@]1(C)O[C@H]1[C@H](C)[C@@H]1C[C@@](O)(NC(=O)O1)[C@H](OC)/C=C/C=C(\C)C2` [CE-027] are 7.82, 7.41 and 7.64.
With `COc1cc2cc(c1Cl)N(C)C(=O)C[C@H](OC(=O)[C@H](C)OCCOCCSC1CC(=O)N(CCC(=O)NCCOCCOCCC(=O)ON3C(=O)CCC3=O)C1=O)[C@]1(C)O[C@H]1[C@H](C)C1C[C@@](O)(NC(=O)O1)[C@H](OC)/C=C/C=C(\C)C2` (stereo partly drawn) [XDCE-M-001], the pIC50 was 6.34 in series [1] (setting [4]), 6.48 in series [2] (setting [5]) and 6.74 in series [3] (setting [6]).
On to `COc1cc2cc(c1Cl)N(C)C(=O)C[C@H](OC(=O)[C@H](C)OCCOCCSC1CC(=O)N(C[C@H]3CC[C@H](C(=O)ON4C(=O)CCC4=O)CC3)C1=O)[C@]1(C)O[C@H]1[C@H](C)C1C[C@@](O)(NC(=O)O1)[C@H](OC)/C=C/C=C(\C)C2` (stereo partly drawn) [CE-034], for which the pIC50 in series [1] (setting [4]) is 7.70; in series [2] (setting [5]), 7.85; in series [3] (setting [6]) it was 7.85.
As for `COc1cc2cc(c1Cl)N(C)C(=O)C[C@H](OC(=O)C1CCC(CSSC)OC1)[C@]1(C)O[C@H]1[C@H](C)C1C[C@@](O)(NC(=O)O1)[C@H](OC)/C=C/C=C(\C)C2` (stereo partly drawn) [CE-053-1], the pIC50 in series [1] (setting [4]) is 7.66; in series [2] (setting [5]), 7.66; in series [3] (setting [6]) it was 7.89.
Consider `COCC(C)(CCC(=O)N(C)[C@H](C)C(=O)OC1CC(=O)N(C)c2cc(cc(OC)c2Cl)C/C(C)=C/C=C/[C@@H](OC)[C@@]2(O)C[C@H](OC(=O)N2)[C@@H](C)[C@@H]2O[C@@]12C)SSC` (stereo partly drawn) [CE-012], for which the pIC50 is 7.79 in series [1] (setting [4]), 7.18 in series [2] (setting [5]) and 6.88 in series [3] (setting [6]).
`COc1cc2cc(c1Cl)N(C)C(=O)C[C@H](OC(=O)[C@H](C)OCCOCCOCC(=O)ON1C(=O)CCC1=O)[C@]1(C)O[C@H]1[C@H](C)C1C[C@@](O)(NC(=O)O1)[C@H](OC)/C=C/C=C(\C)C2` [CE-045]: the figures for the negative-log IC50 (pIC50) in series [1] (setting [4]), in series [2] (setting [5]) and in series [3] (setting [6]) were 6.88, 7.04 and 7.16, respectively.
The corresponding values for `COc1cc2cc(c1Cl)N(C)C(=O)C[C@H](OC(=O)C(COCCCSSC)OC)[C@]1(C)O[C@H]1[C@H](C)C1C[C@@](O)(NC(=O)O1)[C@H](OC)/C=C/C=C(\C)C2` (single isomer, unassigned) [CE-054-1] are 8.00, 8.15 and 8.47.
